Laboratory results from the kinase profiling compilation of Christmann-Franck et al. (2016).

What was measured:
Test in all cases: radiometric filter-binding kinase assay, Kinase HotSpot
Conditions in all cases: compound 0.5 µM; ATP 10 µM
WEE1 (human) = WEE1 (human) (UniProt P30291)
PRKCG (human) = PRKCG (human) (UniProt P05129)
MST1R (human) = MST1R (human) (UniProt Q04912)
AURKB (human) = AURKB (human) (UniProt Q96GD4)
MAPK12 (human) = MAPK12 (human) (UniProt P53778)
CDK4 CCND3 (human) = CDK4 CCND3 (human) (UniProt P30281+P11802)
NEK2 (human) = NEK2 (human) (UniProt P51955)
FGFR2 (human) = FGFR2 (human) (UniProt P21802)
PRKD3 (human) = PRKD3 (human) (UniProt O94806)
SIK2 (human) = SIK2 (human) (UniProt Q9H0K1)
STK39 (human) = STK39 (human) (UniProt Q9UEW8)
ERBB4 (human) = ERBB4 (human) (UniProt Q15303)
Sequence of ERBB4 (human) (Q15303 whole entry, looked up): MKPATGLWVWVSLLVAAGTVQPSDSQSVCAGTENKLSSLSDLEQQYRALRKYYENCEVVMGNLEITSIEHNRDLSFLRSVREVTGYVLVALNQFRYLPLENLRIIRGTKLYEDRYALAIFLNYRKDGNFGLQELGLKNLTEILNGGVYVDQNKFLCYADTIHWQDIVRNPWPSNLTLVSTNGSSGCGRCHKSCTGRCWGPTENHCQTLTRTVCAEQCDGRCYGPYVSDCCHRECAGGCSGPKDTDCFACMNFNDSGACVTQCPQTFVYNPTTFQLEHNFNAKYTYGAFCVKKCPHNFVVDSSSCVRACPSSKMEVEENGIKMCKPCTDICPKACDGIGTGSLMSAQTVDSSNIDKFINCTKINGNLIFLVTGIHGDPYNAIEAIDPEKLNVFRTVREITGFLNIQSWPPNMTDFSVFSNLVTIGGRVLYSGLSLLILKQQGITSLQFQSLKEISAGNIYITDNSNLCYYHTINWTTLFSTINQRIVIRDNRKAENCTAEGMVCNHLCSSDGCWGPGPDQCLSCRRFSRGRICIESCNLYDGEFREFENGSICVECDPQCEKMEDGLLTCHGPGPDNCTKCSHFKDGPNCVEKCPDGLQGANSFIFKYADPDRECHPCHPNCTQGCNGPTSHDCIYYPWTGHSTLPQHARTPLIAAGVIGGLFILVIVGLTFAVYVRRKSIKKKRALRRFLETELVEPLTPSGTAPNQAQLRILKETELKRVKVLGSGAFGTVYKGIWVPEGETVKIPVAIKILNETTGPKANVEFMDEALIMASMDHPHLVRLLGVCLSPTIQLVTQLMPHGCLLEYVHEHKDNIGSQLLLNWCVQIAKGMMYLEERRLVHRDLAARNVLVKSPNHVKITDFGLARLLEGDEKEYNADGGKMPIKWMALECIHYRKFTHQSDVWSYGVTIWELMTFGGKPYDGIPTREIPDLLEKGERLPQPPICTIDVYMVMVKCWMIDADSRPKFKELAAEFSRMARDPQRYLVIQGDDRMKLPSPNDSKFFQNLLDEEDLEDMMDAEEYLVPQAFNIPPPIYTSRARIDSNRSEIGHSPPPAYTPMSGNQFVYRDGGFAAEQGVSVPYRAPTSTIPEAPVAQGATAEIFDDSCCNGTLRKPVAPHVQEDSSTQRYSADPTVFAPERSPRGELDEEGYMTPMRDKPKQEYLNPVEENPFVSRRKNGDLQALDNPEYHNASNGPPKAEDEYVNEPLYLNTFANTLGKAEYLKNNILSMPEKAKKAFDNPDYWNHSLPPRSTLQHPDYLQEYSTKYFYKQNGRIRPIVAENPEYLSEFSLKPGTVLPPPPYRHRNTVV

EPHA3 (human) = EPHA3 (human) (UniProt P29320)
Sequence of EPHA3 (human) (P29320 whole entry, looked up): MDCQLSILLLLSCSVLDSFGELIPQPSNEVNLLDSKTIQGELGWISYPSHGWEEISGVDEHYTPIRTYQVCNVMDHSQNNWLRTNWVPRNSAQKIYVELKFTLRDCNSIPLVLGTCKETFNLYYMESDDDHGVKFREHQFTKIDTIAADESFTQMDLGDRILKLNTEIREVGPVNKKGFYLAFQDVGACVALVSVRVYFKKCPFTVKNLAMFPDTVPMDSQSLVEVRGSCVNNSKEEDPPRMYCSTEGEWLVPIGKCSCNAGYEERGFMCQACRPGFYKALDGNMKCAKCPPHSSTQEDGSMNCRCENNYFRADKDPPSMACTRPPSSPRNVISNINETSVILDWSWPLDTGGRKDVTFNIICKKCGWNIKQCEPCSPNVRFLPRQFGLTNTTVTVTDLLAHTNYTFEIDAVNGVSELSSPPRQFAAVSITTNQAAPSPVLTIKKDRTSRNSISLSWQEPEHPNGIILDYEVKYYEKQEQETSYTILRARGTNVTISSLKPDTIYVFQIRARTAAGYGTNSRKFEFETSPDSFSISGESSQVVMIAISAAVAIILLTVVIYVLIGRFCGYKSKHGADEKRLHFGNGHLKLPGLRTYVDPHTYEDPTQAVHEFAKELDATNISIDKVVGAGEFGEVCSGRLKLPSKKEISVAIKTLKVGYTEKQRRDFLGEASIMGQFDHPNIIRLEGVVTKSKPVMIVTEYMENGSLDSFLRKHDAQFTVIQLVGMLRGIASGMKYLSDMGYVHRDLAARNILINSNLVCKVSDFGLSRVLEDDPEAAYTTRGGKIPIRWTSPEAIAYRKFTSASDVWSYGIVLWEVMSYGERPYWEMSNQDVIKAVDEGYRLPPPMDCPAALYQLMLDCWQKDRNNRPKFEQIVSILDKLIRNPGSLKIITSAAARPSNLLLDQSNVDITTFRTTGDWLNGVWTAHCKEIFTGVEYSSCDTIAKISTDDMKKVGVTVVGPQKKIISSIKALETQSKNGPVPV

PIM2 (human) = PIM2 (human) (UniProt Q9P1W9)
TGFBR1 (human) = TGFBR1 (human) (UniProt P36897)
Sequence of TGFBR1 (human) (P36897 whole entry, looked up): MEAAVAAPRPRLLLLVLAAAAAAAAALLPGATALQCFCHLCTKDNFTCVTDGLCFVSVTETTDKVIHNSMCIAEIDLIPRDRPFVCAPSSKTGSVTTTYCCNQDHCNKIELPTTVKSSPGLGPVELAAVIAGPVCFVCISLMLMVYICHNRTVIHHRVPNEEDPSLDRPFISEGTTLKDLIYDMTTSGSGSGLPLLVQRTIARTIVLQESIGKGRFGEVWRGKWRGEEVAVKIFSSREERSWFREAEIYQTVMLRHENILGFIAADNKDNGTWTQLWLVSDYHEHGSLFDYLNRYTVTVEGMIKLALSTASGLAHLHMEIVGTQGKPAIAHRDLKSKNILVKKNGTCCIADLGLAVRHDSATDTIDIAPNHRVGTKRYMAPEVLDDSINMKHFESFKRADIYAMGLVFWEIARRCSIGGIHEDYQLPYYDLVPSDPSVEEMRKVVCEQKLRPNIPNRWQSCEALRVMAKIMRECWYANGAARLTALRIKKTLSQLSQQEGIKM

NLK (human) = NLK (human) (UniProt Q9UBE8)
CHEK1 (human) = CHEK1 (human) (UniProt O14757)
IRAK4 (human) = IRAK4 (human) (UniProt Q9NWZ3)
PRKX (human) = PRKX (human) (UniProt P51817)
YES1 (human) = YES1 (human) (UniProt P07947)
MLTK (human) = MLTK (human) (UniProt Q9NYL2)
TAOK1 (human) = TAOK1 (human) (UniProt Q7L7X3)
SGK3 (human) = SGK3 (human) (UniProt Q96BR1)
Sequence of SGK3 (human) (Q96BR1 whole entry, looked up): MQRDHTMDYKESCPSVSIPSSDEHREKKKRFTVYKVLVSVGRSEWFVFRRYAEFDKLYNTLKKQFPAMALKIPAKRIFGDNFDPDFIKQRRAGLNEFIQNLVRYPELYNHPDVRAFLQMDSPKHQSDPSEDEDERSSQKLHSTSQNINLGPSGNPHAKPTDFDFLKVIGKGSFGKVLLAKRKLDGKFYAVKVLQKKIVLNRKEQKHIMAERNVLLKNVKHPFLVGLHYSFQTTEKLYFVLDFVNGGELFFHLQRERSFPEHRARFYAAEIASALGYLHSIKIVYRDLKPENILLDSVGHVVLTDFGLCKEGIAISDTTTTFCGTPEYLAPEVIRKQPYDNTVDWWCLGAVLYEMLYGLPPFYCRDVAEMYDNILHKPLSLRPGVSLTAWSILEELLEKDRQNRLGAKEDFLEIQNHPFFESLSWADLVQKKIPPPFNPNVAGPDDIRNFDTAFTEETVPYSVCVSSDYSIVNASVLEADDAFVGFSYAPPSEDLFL

MST4 (human) = MST4 (human) (UniProt Q9P289)
PLK3 (human) = PLK3 (human) (UniProt Q9H4B4)
PRKCA (human) = PRKCA (human) (UniProt P17252)
DAPK3 (human) = DAPK3 (human) (UniProt O43293)
NEK1 (human) = NEK1 (human) (UniProt Q96PY6)
HCK (human) = HCK (human) (UniProt P08631)
EPHB4 (human) = EPHB4 (human) (UniProt P54760)
ROS1 (human) = ROS1 (human) (UniProt P08922)
MKNK2 (human) = MKNK2 (human) (UniProt Q9HBH9)
CLK4 (human) = CLK4 (human) (UniProt Q9HAZ1)
CDK9 CCNT1 (human) = CDK9 CCNT1 (human) (UniProt P50750+O60563)
CAMK2D (human) = CAMK2D (human) (UniProt Q13557)
STK4 (human) = STK4 (human) (UniProt Q13043)
MARK1 (human) = MARK1 (human) (UniProt Q9P0L2)
CAMK1G (human) = CAMK1G (human) (UniProt Q96NX5)
PAK7 (human) = PAK7 (human) (UniProt Q9P286)
ACVR1B (human) = ACVR1B (human) (UniProt P36896)
Sequence of ACVR1B (human) (P36896 whole entry, looked up): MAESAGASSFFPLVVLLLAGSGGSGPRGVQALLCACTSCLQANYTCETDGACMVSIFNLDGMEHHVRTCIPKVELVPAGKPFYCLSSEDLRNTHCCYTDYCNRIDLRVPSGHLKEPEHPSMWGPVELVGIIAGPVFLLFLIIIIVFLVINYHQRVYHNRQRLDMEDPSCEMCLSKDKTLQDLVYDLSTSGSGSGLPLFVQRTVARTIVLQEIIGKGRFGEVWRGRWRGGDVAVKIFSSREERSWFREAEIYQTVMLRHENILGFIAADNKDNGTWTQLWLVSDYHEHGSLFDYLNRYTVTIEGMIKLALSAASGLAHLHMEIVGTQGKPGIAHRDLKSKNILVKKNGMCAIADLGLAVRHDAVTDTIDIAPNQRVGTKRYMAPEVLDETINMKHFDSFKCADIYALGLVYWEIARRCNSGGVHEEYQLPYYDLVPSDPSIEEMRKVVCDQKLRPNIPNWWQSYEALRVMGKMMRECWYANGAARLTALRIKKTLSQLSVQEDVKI

MYLK (human) = MYLK (human) (UniProt Q15746)
EPHB3 (human) = EPHB3 (human) (UniProt P54753)

Sequence of AURKB (human) (Q96GD4 whole entry, looked up): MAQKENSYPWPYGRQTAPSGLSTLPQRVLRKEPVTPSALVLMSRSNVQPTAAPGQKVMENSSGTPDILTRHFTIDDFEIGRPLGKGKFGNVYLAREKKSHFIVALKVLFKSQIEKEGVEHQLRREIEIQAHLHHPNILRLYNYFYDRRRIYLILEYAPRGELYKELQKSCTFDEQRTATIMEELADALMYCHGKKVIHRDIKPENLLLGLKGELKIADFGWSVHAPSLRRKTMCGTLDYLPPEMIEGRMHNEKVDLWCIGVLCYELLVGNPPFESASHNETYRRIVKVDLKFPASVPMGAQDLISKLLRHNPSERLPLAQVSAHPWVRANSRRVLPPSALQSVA
Sequence of WEE1 (human) (P30291 whole entry, looked up): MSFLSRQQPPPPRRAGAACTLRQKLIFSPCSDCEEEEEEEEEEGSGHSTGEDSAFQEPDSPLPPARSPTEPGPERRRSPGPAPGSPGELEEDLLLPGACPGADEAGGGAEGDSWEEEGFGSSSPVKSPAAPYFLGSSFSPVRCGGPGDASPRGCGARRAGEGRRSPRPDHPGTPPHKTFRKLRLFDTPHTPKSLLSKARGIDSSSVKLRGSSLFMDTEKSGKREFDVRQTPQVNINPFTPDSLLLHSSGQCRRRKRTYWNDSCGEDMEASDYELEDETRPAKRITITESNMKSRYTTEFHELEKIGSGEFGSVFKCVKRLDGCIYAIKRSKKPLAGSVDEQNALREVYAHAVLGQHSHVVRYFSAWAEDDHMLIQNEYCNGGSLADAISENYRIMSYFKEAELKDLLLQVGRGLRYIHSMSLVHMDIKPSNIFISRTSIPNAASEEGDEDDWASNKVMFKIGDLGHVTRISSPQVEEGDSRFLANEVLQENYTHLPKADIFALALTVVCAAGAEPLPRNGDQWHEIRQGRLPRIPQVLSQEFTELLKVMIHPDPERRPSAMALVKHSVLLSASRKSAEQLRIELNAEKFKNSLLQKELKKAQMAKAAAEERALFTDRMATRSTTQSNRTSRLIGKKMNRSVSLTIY

Structure (SMILES): O=C1NC(=O)C(c2cn(CCCO)c3ncccc23)=C1c1cnccn1
- residual activity (WEE1 (human)): 96.2%
- residual activity (PRKCG (human)): 93.1%
- residual activity (MST1R (human)): 96.1%
- residual activity (AURKB (human)): 101%
- residual activity (MAPK12 (human)): 86.8%
- residual activity (CDK4 CCND3 (human)): 95.9%
- residual activity (NEK2 (human)): 97.5%
- residual activity (FGFR2 (human)): 103%
- residual activity (PRKD3 (human)): 78.2%
- residual activity (SIK2 (human)): 101%
- residual activity (STK39 (human)): 111%
- residual activity (ERBB4 (human)): 115%
- residual activity (EPHA3 (human)): 102%
- residual activity (PIM2 (human)): 92.7%
- residual activity (TGFBR1 (human)): 98.5%
- residual activity (NLK (human)): 91.2%
- residual activity (CHEK1 (human)): 141%
- residual activity (IRAK4 (human)): 129%
- residual activity (PRKX (human)): 106%
- residual activity (YES1 (human)): 80.1%
- residual activity (MLTK (human)): 96.4%
- residual activity (TAOK1 (human)): 132%
- residual activity (SGK3 (human)): 124%
- residual activity (MST4 (human)): 78.7%
- residual activity (PLK3 (human)): 91.1%
- residual activity (PRKCA (human)): 91.1%
- residual activity (DAPK3 (human)): 80.2%
- residual activity (NEK1 (human)): 91.9%
- residual activity (HCK (human)): 63.4%
- residual activity (EPHB4 (human)): 95.2%
- residual activity (ROS1 (human)): 106%
- residual activity (MKNK2 (human)): 69.1%
- residual activity (CLK4 (human)): 100%
- residual activity (CDK9 CCNT1 (human)): 88.3%
- residual activity (CAMK2D (human)): 101%
- residual activity (STK4 (human)): 83.6%
- residual activity (MARK1 (human)): 95%
- residual activity (CAMK1G (human)): 101%
- residual activity (PAK7 (human)): 88.2%
- residual activity (ACVR1B (human)): 100%
- residual activity (MYLK (human)): 74%
- residual activity (EPHB3 (human)): 86.6%

Structure (SMILES): O=C1NC(=O)C(c2c[nH]c3ccccc23)=C1c1c[nH]c2ccccc12
- residual activity (WEE1 (human)): 98.1%
- residual activity (PRKCG (human)): 91.4%
- residual activity (MST1R (human)): 93.1%
- residual activity (AURKB (human)): 89.3%
- residual activity (MAPK12 (human)): 93%
- residual activity (CDK4 CCND3 (human)): 89.8%
- residual activity (NEK2 (human)): 102%
- residual activity (FGFR2 (human)): 89.4%
- residual activity (PRKD3 (human)): 88.4%
- residual activity (SIK2 (human)): 102%
- residual activity (STK39 (human)): 93.6%
- residual activity (ERBB4 (human)): 110%
- residual activity (EPHA3 (human)): 95.1%
- residual activity (PIM2 (human)): 105%
- residual activity (TGFBR1 (human)): 96.6%
- residual activity (NLK (human)): 103%
- residual activity (CHEK1 (human)): 93.1%
- residual activity (IRAK4 (human)): 92%
- residual activity (PRKX (human)): 99.5%
- residual activity (YES1 (human)): 88.4%
- residual activity (MLTK (human)): 107%
- residual activity (TAOK1 (human)): 93.7%
- residual activity (SGK3 (human)): 97.9%
- residual activity (MST4 (human)): 59.2%
- residual activity (PLK3 (human)): 99.9%
- residual activity (PRKCA (human)): 27.7%
- residual activity (DAPK3 (human)): 104%
- residual activity (NEK1 (human)): 93.8%
- residual activity (HCK (human)): 96%
- residual activity (EPHB4 (human)): 88.5%
- residual activity (ROS1 (human)): 87%
- residual activity (MKNK2 (human)): 89.6%
- residual activity (CLK4 (human)): 76.1%
- residual activity (CDK9 CCNT1 (human)): 89.9%
- residual activity (CAMK2D (human)): 65%
- residual activity (STK4 (human)): 61.8%
- residual activity (MARK1 (human)): 90.6%
- residual activity (CAMK1G (human)): 99.5%
- residual activity (PAK7 (human)): 104%
- residual activity (ACVR1B (human)): 112%
- residual activity (MYLK (human)): 74.4%
- residual activity (EPHB3 (human)): 94.3%
